Test results as given in US10344026B2, “Compositions and methods of targeting mutant K-ras” (NANTBIO, INC., priority 2017, dated 2019).

Columns and labels:
Assay type in all cases: cell-based
[1] = test system: phospho-Akt in Panc10.05 (G12D); experiment: In-Cell Western phospho-Akt, Panc10.05; conditions: Homo sapiens, Panc1005, 1 h; Panc10.05, one hour treatment; read-out: In-Cell Western Panc10.05 (G12D) Akt (P)
In short: (§1)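 Cells were seeded at 3000 cells/well, incubated 18 hr at 37° C, then treated with compound for 1 hr (0.5% DMSO final). After fixation, permeabilization and blocking, phospho-Akt or phospho-ERK antibodies were applied overnight at 4° C, followed by secondary antibody; cellular fluorescence was imaged and EC50 calculated.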

K-Ras G12D = target: T1, K-Ras G12D (Homo sapiens, UniProt P01116, G12D); experiment: G-LISA Ras activation, 293H cells transfected with G12D mutant; conditions: compound 1 hour
T1 construct: expressed in transfected cells; host or cells: 293H cells
T1 sequence (P01116 whole entry G12D): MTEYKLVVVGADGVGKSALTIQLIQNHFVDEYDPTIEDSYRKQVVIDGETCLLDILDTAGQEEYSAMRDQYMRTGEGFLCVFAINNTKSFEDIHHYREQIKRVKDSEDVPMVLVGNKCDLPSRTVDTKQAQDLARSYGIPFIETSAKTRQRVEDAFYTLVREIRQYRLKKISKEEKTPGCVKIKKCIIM
In short: (§2)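 Active Ras was quantified by G-LISA in lysates of 293H cells transiently expressing wild-type or mutant Ras. Compounds (3.125-25 μM) were applied for 1 hour; only wild-type transfected cells were stimulated with 100 ng/ml EGF for 2 minutes.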

Panc10.05-G12D = experiment: Viability assay (CellTiterBlue, 72 hr) Panc10.05; conditions: Homo sapiens, Panc1005, GI50, CellTiterBlue, Panc10.05 K-Ras G12D, read-out: 72 hr Cell Viability Panc10.05 (G12D)
In short: (§3)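 GI50 calculation uses a window set by DMSO-treated wells (100% viability) and 100 uM tamoxifen (0%). Cells (1000/well) sit 18 hr at 37 °C, receive compound for 72 hr in 0.5% DMSO, then get CellTiterBlue for 3 hr before reading at Ex550/Em590.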

[2] = test system: U87-MG (K-Ras wild type cell line); experiment: Viability assay (CellTiterBlue, 72 hr) U87-MG; conditions: Homo sapiens, U-87 MG, GI50, CellTiterBlue, U87-MG K-Ras wild-type
In short: as §3

HCT116-G31D = experiment: Viability assay (CellTiterBlue, 72 hr) HCT116; conditions: Homo sapiens, HCT-116, GI50, CellTiterBlue, HCT116 K-Ras G13D, read-out: 72 hr Cell Viability HCT116 (G13D)
In short: as §3

[3] = test system: phospho-Akt in A375 (Wild-type); experiment: In-Cell Western phospho-Akt, A375; conditions: Homo sapiens, A-375, 1 h; A375, one hour treatment; read-out: In-Cell Western A375 (Wild-type) Akt (P)
In short: as §1

[4] = test system: phospho-ERK in HCC827 (Wild-type); experiment: In-Cell Western phospho-ERK, HCC827; conditions: Homo sapiens, 1 h; HCC827, one hour treatment; read-out: In-Cell Western HCC827 (Wild-type) Erk (P)
In short: as §1

[5] = test system: phospho-Akt in HCC827 (Wild-type); experiment: In-Cell Western phospho-Akt, HCC827; conditions: Homo sapiens, 1 h; HCC827, one hour treatment; read-out: In-Cell Western HCC827 (Wild-type) Akt (P)
In short: as §1

[6] = test system: Ishikawa (K-Ras wild type cell line); experiment: Viability assay (CellTiterBlue, 72 hr) Ishikawa; conditions: Homo sapiens, GI50, CellTiterBlue, Ishikawa K-Ras wild-type
In short: as §3

[7] = test system: phospho-ERK in A375 (Wild-type); experiment: In-Cell Western phospho-ERK, A375; conditions: Homo sapiens, A-375, 1 h; A375, one hour treatment; read-out: In-Cell Western A375 (Wild-type) Erk (P)
In short: as §1

[8] = test system: phospho-ERK in Panc10.05 (G12D); experiment: In-Cell Western phospho-ERK, Panc10.05; conditions: Homo sapiens, Panc1005, 1 h; Panc10.05, one hour treatment; read-out: In-Cell Western Panc10.05 (G12D) Erk (P)
In short: as §1

Panc1-G12D = experiment: Viability assay (CellTiterBlue, 72 hr) Panc1; conditions: Homo sapiens, PANC-1, GI50, CellTiterBlue, Panc1 K-Ras G12D, read-out: 72 hr Cell Viability Panc1 (G12D)
In short: as §3

[9] = test system: HCC827 (K-Ras wild type cell line); experiment: Viability assay (CellTiterBlue, 72 hr) HCC827; conditions: Homo sapiens, GI50, CellTiterBlue, HCC827 K-Ras wild-type
In short: as §3

wild type K-Ras = target: T2, wild type K-Ras (Homo sapiens, UniProt P01116); experiment: G-LISA Ras activation, 293H cells transfected with Ras wild-type, EGF stimulated; conditions: compound 1 hour, then 100 ng/ml EGF 2 minutes
T2 construct: expressed in transfected cells; host or cells: 293H cells
T2 sequence (P01116 whole entry): as the sequence (P01116 whole entry G12D) above, with D12G counted along it
In short: as §2

[10] = test system: phospho-Akt in Panc1 (G12D); experiment: In-Cell Western phospho-Akt, Panc1; conditions: Homo sapiens, PANC-1, 1 h; Panc1, one hour treatment; read-out: In-Cell Western Panc1 (G12D) Akt (P)
In short: as §1

[11] = test system: A375 (K-Ras wild type cell line); experiment: Viability assay (CellTiterBlue, 72 hr) A375; conditions: Homo sapiens, A-375, GI50, CellTiterBlue
In short: as §3

[12] = test system: phospho-ERK in Panc1 (G12D); experiment: In-Cell Western phospho-ERK, Panc1; conditions: Homo sapiens, PANC-1, 1 h; Panc1, one hour treatment; read-out: In-Cell Western Panc1 (G12D) Erk (P)
In short: as §1

Row | Structure (SMILES) | EC50 [1] | IC50 (K-Ras G12D) | IC50 (Panc10.05-G12D) | IC50 [2] | IC50 (HCT116-G31D) | EC50 [3] | EC50 [4] | EC50 [5] | IC50 [6] | EC50 [7] | EC50 [8] | IC50 (Panc1-G12D) | IC50 [9] | IC50 (wild type K-Ras) | EC50 [10] | IC50 [11] | EC50 [12]
1 | Cc1nn(C(C)C)c(C)c1C(=O)Nc1nc(-c2ccc3c(c2)CCC(=O)N3)cs1 [Compound 52, 1-isopropyl-3,5-dimethyl-N-(4-(2-oxo-1,2,3,4-tetrahydroquinolin-6-yl)thiazol-2-yl)-1H-pyrazole-4-carboxamide] | 18 µM | 5.2 µM | 15 µM | 14 µM | 10 µM | 24 µM | 20 µM | > 25 µM | 13 µM | 14 µM | 4000 nM | 16 µM | 10 µM | 13.9 µM | > 25 µM | 5 µM | 8 µM
2 | COCCN1C(=O)CCc2cc(-c3csc(NC(=O)c4oc(C(C)C)nc4C)n3)ccc21 [Compound 111, 2-isopropyl-NA-(4-(1-(2-methoxyethyl)-2-oxo-1,2,3,4-tetrahydroquinolin-6-yl)thiazol-2-yl)-4-methyloxazole-5-carboxamide] | 2 µM | 2.5 µM | 0.852 µM | 7 µM | 24 µM | > 25 µM | 1.6 µM | > 25 µM | 4 µM | 12 µM | 767 nM | 2 µM | 2 µM | 3.9 µM | 16 µM | 7 µM | 1.4 µM
3 | Cc1nn(C(C)C)cc1C(=O)Nc1nc(-c2ccc3c(c2)CCC(=O)N3Cc2cccnc2)cs1 [Compound 116, 1-isopropyl-3-methyl-N-(4-(2-oxo-1-(pyridin-3-ylmethyl)-1,2,3,4-tetrahydroquinolin-6-yl)thiazol-2-yl)-1-pyrazole-4-carboxamide] | 2 µM | 2.5 µM | 1.2 µM | > 25 µM | > 25 µM | > 25 µM | 3 µM | > 25 µM | 21 µM | 12 µM | 745 nM | 3 µM | 4 µM | 6.1 µM | 22 µM | 12 µM | 3 µM
4 | Cc1nn(-c2ccccc2)c(C)c1C(=O)Nc1nc(-c2ccc3c(c2)CCC(=O)N3)cs1 [Compound 53, 3,5-dimethyl-N-(4-(2-oxo-1,2,3,4-tetrahydroquinolin-6-yl)thiazol-2-yl)-1-phenyl-1H-pyrazole-4-carboxamide] | 15 µM | 6.7 µM | 10 µM | 15 µM | 11 µM | 10 µM | 14 µM | > 25 µM | 13 µM | 6 µM | 3000 nM | 12 µM | 10 µM | 7.7 µM | > 25 µM | 3 µM | 16 µM
5 | Cc1nn(C(C)(C)C)c(C)c1C(=O)Nc1nc(-c2ccc3c(c2)CCC(=O)N3)cs1 [Compound 57, 1-(tert-butyl)-3,5-dimethyl-N-(4-(2-oxo-1,2,3,4-tetrahydroquinolin-6-yl)thiazol-2-yl)-1H-pyrazole-4-carboxamide] | > 25 µM | 9.4 µM | 8 µM | > 25 µM | > 25 µM | > 25 µM | > 25 µM | > 25 µM | > 25 µM | > 25 µM | 6000 nM | > 25 µM | > 25 µM | 30 µM | > 25 µM | 27 µM | 26 µM
6 | Cc1nn(-c2ccc(F)cc2)c(C)c1C(=O)Nc1nc(-c2ccc3c(c2)CCC(=O)N3)cs1 [Compound 54, 1-(4-fluorophenyl)-3,5-dimethyl-N-(4-(2-oxo-1,2,3,4-tetrahydroquinolin-6-yl)thiazol-2-yl)-1-pyrazole-4-carboxamide] | > 25 µM | 7.9 µM | 6 µM | 15 µM | 23 µM | > 25 µM | > 25 µM | > 25 µM | > 25 µM | > 25 µM | 3000 nM | 15 µM | 13 µM | 10.6 µM | > 25 µM | 26 µM | > 25 µM
7 | CCCn1nc(C)c(C(=O)Nc2nc(-c3ccc4c(c3)CCC(=O)N4)cs2)c1C [Compound 55, 3,5-dimethyl-N-(4-(2-oxo-1,2,3,4-tetrahydroquinolin-6-yl)thiazol-2-yl)-1-propyl-1H-pyrazole-4-carboxamide] | > 25 µM | 4 µM | > 25 µM | > 25 µM | > 25 µM | > 25 µM | > 25 µM | > 25 µM | > 25 µM | > 25 µM | 14000 nM | > 25 µM | > 25 µM | 6.5 µM | > 25 µM | > 25 µM | > 25 µM
8 | Cc1nn(Cc2ccccc2)c(C)c1C(=O)Nc1nc(-c2ccc3c(c2)CCC(=O)N3)cs1 [Compound 56, 1-benzyl-3,5-dimethyl-N-(4-(2-oxo-1,2,3,4-tetrahydroquinolin-6-yl)thiazol-2-yl)-1H-pyrazole-4-carboxamide] | 21 µM | 6.6 µM | 7 µM | 12 µM | 6 µM | > 25 µM | 9 µM | > 25 µM | 7 µM | 16 µM | 3000 nM | 9 µM | 7 µM | 19.2 µM | 27 µM | 4 µM | 3 µM
9 | CCn1cc(C(=O)Nc2nc(-c3ccc4c(c3)CCC(=O)N4Cc3cccnc3)cs2)c(C)n1 [Compound 115, 1-ethyl-3-methyl-N-(4-(2-oxo-1-(pyridin-3-ylmethyl)-1,2,3,4-tetrahydroquinolin-6-yl)thiazol-2-yl)-1H-pyrazole-4-carboxamide] | 12 µM | 3.4 µM | 4 µM | 17 µM | 10 µM | > 25 µM | 6 µM | > 25 µM | 9 µM | 9 µM | 2000 nM | 9 µM | 11 µM | 6.3 µM | 18 µM | 6 µM | 2 µM
